Data taken from ChEMBL document CHEMBL3507680, “University of Dundee, Gates Library screen for HepG2 cell viability”.

Experiment: Human HepG2 cell viability assay in 384 well format
Assay type: toxicity, cell-based
Set-up: dose 125 nL, time 70.5 hour; concentration not given beside the values
Conditions: HepG2 cells, read-out: Inhibition

Structure (SMILES)	cytotoxicity at 70.5 h [%]
O=C(NCC1(O)CCSC1)c1ccoc1 (stereo not drawn)	-5.15
CCN1Cc2cc3c(cc2NCCC1=O)OCO3	6.48
c1cc(CN2C[C@@H]3OCCN(CC4CC4)[C@@H]3C2)n[nH]1	-7.71
CCc1nc(CC(=O)N2CCCC2CN2CCCC2)cs1 (stereo not drawn)	-1.93
CSc1ccc(CN(CCO)Cc2nccn2C)cc1	-3.61
Cc1nn(CC(=O)N2CCCN(c3cccnn3)CC2)c(C)c1Cl	0.771
CCCN(CCc1ccccn1)C(=O)Cn1cc(C)cn1	-4.61
CCc1cnc(CN2CCC(N(C)Cc3noc(C4CC4)n3)C2)o1 (stereo not drawn)	23.8
CC(C)N(C)C(=O)c1ccc(Cl)c(NC(=O)CCN2C(=O)CCC2=O)c1	-9.99
COc1cccc(N2CC3(CCN(Cc4nccn4C)C3)CC2=O)c1 (stereo not drawn)	-16.5
Cc1nc(CN2CCC3(CCN(c4ncc(F)cn4)C3)C2=O)cs1 (stereo not drawn)	4.85
CCc1cnc(N2CCC3(CC(=O)N(Cc4csc(C)n4)C3)C2)nc1 (stereo not drawn)	-12
COCCOCC(=O)N(C)Cc1ccc(OCc2cccs2)cc1	-6.68
Cc1c(Cl)c(C(=O)NCc2ccc(F)cc2)nn1C	-5.73
O=C(NCc1ccco1)[C@@H]1CC[C@@H]2[C@@H](CCN2CC2CC2)O1	-6.24
C=C(C)CN1CCN(Cc2cnc(-c3ccc(OC)cc3)nc2)CC1	9.18
CN(C(=O)c1cccc(NCc2cccs2)c1)C(C1CC1)C1CC1	-11.2
O=C(CCc1ccco1)Nc1ccc(Br)cn1	28.6
CC(NCc1nnc2n1CCCC2)c1nc(Cc2ccccc2)no1 (stereo not drawn)	-8.89
CC1CCCN(C(=O)Nc2ccc(F)c(C(N)=O)c2)C1 (stereo not drawn)	-1.11

Structure (SMILES)	cytotoxicity at 70.5 h [%]
CCN1c2ccc(-c3cncn3CC(=O)NC(C)(C)C)cc2CC1C (stereo not drawn)	-7.81
O=C(O)c1ccc(=O)n(CC(c2ccc(Cl)cc2)N2CCOCC2)c1 (stereo not drawn)	-6.42
CO[C@H]1CC[C@H]2[C@H]1OCCN2Cc1ccc(F)cc1	9.89
COc1ccc2cccc(CC(=O)NCc3n[nH]c(=O)[nH]3)c2c1	-1.52
Cc1cc(C)nc(NC2CC(=O)N(C)C2)n1 (stereo not drawn)	-8.75
COCCCNC(=O)CN(C)C(=O)CN(C)c1ccc(C#N)cn1	-7.44
O=C(NCc1cccnc1N1CCCCC1)c1cccs1	-3.28
Cc1nccc(CNC(=O)NC(c2ncc(C)s2)C2CC2)n1 (stereo not drawn)	17.4
O=C(Cn1ccc2ccccc21)NCc1ccc(C(=O)O)cc1	-10.6
Cn1ncnc1NCc1ccc(Br)cc1	-5.73
CN(CCc1ccncc1)C(=O)C1CSCN1C(=O)C1CCCC1 (stereo not drawn)	-5.06
CCCn1c(O)nnc1SCC1OCCc2ccccc21 (stereo not drawn)	-7.64
CCC1CN(CCNC(C)=O)CCN1CCOC (stereo not drawn)	2.28
CN(Cc1ccco1)C(=O)CN1CCCC1Cn1cccn1 (stereo not drawn)	-3.69
O=C1NC2(CCCN(C(=O)CCn3cccn3)C2)Oc2ccccc21 (stereo not drawn)	1.47
CCN(Cc1ccc(S(C)(=O)=O)cc1)Cc1nc(COC)no1	-11.1
CN(Cc1cnccn1)C(=O)Nc1cc(F)cc(N2CCCC2)c1	-5.64
C[S+]([O-])CCNC(=O)N1CCSC2(CCCCC2)C1 (stereo not drawn)	-3.78
Cc1cc2ccccc2n1CCC(=O)NCCN(C)S(C)(=O)=O	-13.9
CC(C)Oc1ccc(CN2CCCC(N3CCOCC3)C2)cc1CO (stereo not drawn)	-5.76

Structure (SMILES)	cytotoxicity at 70.5 h [%]
NC(=O)C1CCCN1Cc1nccn1CC(F)(F)F (stereo not drawn)	10.6
CN(CCCC#N)C1CCCN(Cc2noc(C3CC3)n2)C1 (stereo not drawn)	9.15
CN1Cc2cc(F)ccc2N(CC(O)C(F)(F)F)CCC1=O (stereo not drawn)	11.8
COCCN1CCCn2c(nc(CNC(=O)COC)cc2=O)C1	-2.45
CN(CC1CC1)C(=O)Cc1csc(-c2ncccn2)n1	0.625
COCCN(Cc1ccccc1Cl)c1nc(CCN)nc2ccccc12	-6.84
Cc1cc(C)c(CNC(=O)NCC2COc3ccccc3C2)c(=O)[nH]1 (stereo not drawn)	-10.2
CCOC(=O)CNC(=O)c1cccnc1Oc1ccc(Cl)cc1	-9.7
Cc1cc(CN(C)C2CCCN(Cc3noc(C)n3)C2)on1 (stereo not drawn)	17.4
COCc1nn(C)c2c1CCN(Cc1cnn(C)c1)C2	-5.93
c1ccc(CN2CC[C@H]3CO[C@H](CNc4ncccn4)[C@H]3C2)cc1	-5.27
c1cnn(C[C@@H]2C[C@@H]3CN(CC4CC4)CC[C@@H]3N2c2nccs2)c1	0.124
COc1ccc(F)cc1C(C)NC(=O)NCCCn1cncn1 (stereo not drawn)	-2.2
Cc1ccc(N2CCC(C3CCN(CC(C)C)CC3)C2)nn1 (stereo not drawn)	-6.28
CN1CCN(S(=O)(=O)c2ccccc2)Cc2cccnc21	-4.28
O=C(NCC1CC1)[C@@H]1CCO[C@@H]2CCN(Cc3ccsc3)C[C@H]21	-10.2
COc1cccnc1NC(=O)COc1c(C)cccc1C	18.3
COc1ccc(CCN2C(=O)O[C@@H]3CN(C4CCSCC4)C[C@@H]32)cc1	-6.37
